From patent publication US9227971B2, “Pyrazolo[1,5-a]pyrimidine compounds as mTOR inhibitors” (Merck Sharp & Dohme Corp., priority 2010, dated 2016)
Where two headings read alike, the source gives them in different places.

How the values were obtained:
[1] = test system: phosphorylated 4E-BP1 Thr37/46 (p4E-BP1 Thr37/46), mTORC1 activity, PC3 cells; assay: mTOR target engagement assay, immunofluorescent cell-based, p4E-BP1 Thr37/46 readout (mTORC1 activity); conditions: read-out: p4E-BP1 Thr37/46 IC50
In short: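 PTEN-mutant PC3 prostate cells were treated with serially diluted compound in 5% FBS F12 medium (0.25% DMSO) for ninety minutes at 37° C, glyoxal-fixed, then immunostained overnight at 4° C for p4E-BP1 Thr37/46 with an Alexa Fluor 488 secondary. IC50 came from four-parameter fits of fluorescence, DMSO-only wells defining 100%.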

[2] = test system: phosphorylated AKT Ser473 (pAKT S473), mTORC2 activity, PC3 cells; assay: mTOR target engagement assay, immunofluorescent cell-based, pAKT S473 readout (mTORC2 activity)
In short: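 After blocking, cells were stained overnight at 4 °C with anti-pAKT S473 antibody, then a fluorescent secondary; inhibition was read as reduced fluorescence intensity.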

[3] = Homo sapiens, PC-3, PC3 cells, compound treatment ninety minutes at 37° C.
[4] = Homo sapiens, PC-3, Table 7-4, PC3 cells
[5] = Homo sapiens, PC-3, Table 7-5, PC3 cells
[6] = Homo sapiens, PC-3, Table 7-8, PC3 cells

| Compound | IC50 [1, 6] [nM] | IC50 [2, 6] [nM] | further results |
| --- | --- | --- | --- |
| CS(=O)(=O)c1c([C@@H]2C[C@H]3CC[C@@H](C2)N3C(=O)c2cnn[nH]2)nc2c(-c3ccc(C4(O)CCC4)nc3)cnn2c1N [Compound 7.30, ((1R,3s,5S)-3-(7-amino-3-(6-(1-hydroxycyclobutyl)pyridin-3-yl)-6-(methylsulfonyl)pyrazolo[1,5-a]pyrimidin-5-yl)-8-azabicyclo[3.2.1]octan-8-yl)(1H-1,2,3-triazol-5-yl)methanone] |  |  | IC50 ([1]; Table 7-2, PC3 cells): 100 to 1000 nM; IC50 ([2]; Table 7-2, PC3 cells): 100 to 1000 nM |
| COCCOCc1ccc(-c2cnn3c(N)c(C(C)=O)c([C@@H]4C[C@H]5CC[C@@H](C4)N5C(=O)c4nnc[nH]4)nc23)cn1 [Compound 7.31, 1-(5-((1R,3s,5S)-8-(4H-1,2,4-triazole-3-carbonyl)-8-azabicyclo[3.2.1]octan-3-yl)-7-amino-3-(6-((2-methoxyethoxy)methyl)pyridin-3-yl)pyrazolo[1,5-a]pyrimidin-6-yl)ethanone] |  |  | IC50 [1, 3]: 1000 to 10000 nM; IC50 [2, 3]: 1000 to 10000 nM |
| COCCOCc1ccc(-c2cnn3c(N)c(S(C)(=O)=O)c([C@@H]4C[C@H]5CC[C@@H](C4)N5C(=O)c4nnc[nH]4)nc23)cn1 [Compound 7.32, ((1R,3s,5S)-3-(7-amino-3-(6-((2-methoxyethoxy)methyl)pyridin-3-yl)-6-(methylsulfonyl)pyrazolo [1,5-a]pyrimidin-5-yl)-8-azabicyclo[3.2.1]octan-8-yl)(4H-1,2,4-triazol-3-yl)methanone] |  |  | IC50 [1, 3]: 1000 to 10000 nM; IC50 [2, 3]: > 10000 nM |
| CC(=O)c1c([C@@H]2C[C@H]3CC[C@@H](C2)N3C(=O)c2nnc[nH]2)nc2c(-c3ccc([C@@H](C)O)nc3)cnn2c1N [Compound 7.33, 1-(5-((1R,3s,5S)-8-(4H-1,2,4-triazole-3-carbonyl)-8-azabicyclo[3.2.1]octan-3-yl)-7-amino-3-(6-((R)-1-hydroxyethyl)pyridin-3-yl)pyrazolo[1,5-a]pyrimidin-6-yl)ethanone] |  |  | IC50 [1, 4]: 100 to 1000 nM; IC50 [2, 4]: 100 to 1000 nM |
| CC(=O)c1c([C@@H]2C[C@H]3CC[C@@H](C2)N3C(=O)c2nnc[nH]2)nc2c(-c3ccc([C@H](C)O)nc3)cnn2c1N [Compound 7.34, 1-(5-((1R,3s,5S)-8-(4H-1,2,4-triazole-3-carbonyl)-8-azabicyclo[3.2.1]octan-3-yl)-7-amino-3-(6-((S)-1-hydroxyethyl)pyridin-3-yl)pyrazolo[1,5-a]pyrimidin-6-yl)ethanone] |  |  | IC50 [1, 4]: 1 to 100 nM; IC50 [2, 4]: 1 to 100 nM |
| CS(=O)(=O)c1c([C@@H]2C[C@H]3CC[C@@H](C2)N3C(=O)c2nnc[nH]2)nc2c(-c3ccc(CO)nc3)cnn2c1N [Compound 7.35, ((1R,3s,5S)-3-(7-amino-3-(6-(hydroxymethyl)pyridin-3-yl)-6-(methylsulfonyl)pyra-zolo[1,5-a]pyrimidin-5-yl)-8-azabicyclo[3.2.1]octan-8-yl)(4H-1,2,4-triazol-3-yl)methanone] |  |  | IC50 [1, 5]: 100 to 1000 nM; IC50 [2, 5]: 100 to 1000 nM |
| CC(=O)c1c([C@@H]2C[C@H]3CC[C@@H](C2)N3C(=O)c2nnc[nH]2)nc2c(-c3cnc(C(C)O)s3)cnn2c1N (stereo partly drawn) [Compound 7.36, 1-(5-((1R,3s,5S)-8-(4H-1,2,4-triazole-3-carbonyl)-8-azabicyclo[3.2.1]octan-3-yl)-7-amino-3-(2-(1-hydroxyethyl)thiazol-5-yl)pyrazolo[1,5-a]pyrimidin-6-yl)ethanone] |  |  | IC50 [1, 3]: 1000 to 10000 nM; IC50 [2, 3]: 1000 to 10000 nM |
| CC(C)(O)c1ccc(-c2cnn3c(N)c(C4CC4)c([C@@H]4C[C@H]5CC[C@@H](C4)N5C(=O)c4nnc[nH]4)nc23)cn1 [Compound 7.39, ((1R,3s,5S)-3-(7-amino-6-cyclopropyl-3-(6-(2-hydroxypropan-2-yl)pyridin-3-yl)pyrazolo[1,5-a]pyrimidin-5-yl)-8-azabicyclo[3.2.1]octan-8-yl)(4H-1,2,4-triazol-3-yl)methanone] | 1 to 100 | 1 to 100 |  |
| CC(=O)c1c([C@@H]2C[C@H]3CC[C@@H](C2)N3C(=O)c2nnc[nH]2)nc2c(-c3ccc(C4(O)CCC4)nc3)cnn2c1N [Compound 7.40, 1-(5-((1R,3s,5S)-8-(4H-1,2,4-triazole-3-carbonyl)-8-azabicyclo[3.2.1]octan-3-yl)-7-amino-3-(6-(1-hydroxycyclobutyl)pyridin-3-yl)pyrazolo[1,5-a]pyrimidin-6-yl)ethanone] | 1 to 100 | 1 to 100 |  |
| CS(=O)(=O)c1c([C@@H]2C[C@H]3CC[C@@H](C2)N3C(=O)c2nnc[nH]2)nc2c(-c3ccc(C4(O)CCC4)nc3)cnn2c1N [Compound 7.41, ((1R,3s,5S)-3-(7-amino-3-(6-(1-hydroxycyclobutyl)pyridin-3-yl)-6-(methylsulfonyl)pyrazolo [1,5-a]pyrimidin-5-yl)-8-azabicyclo[3.2.1]octan-8-yl)(4H-1,2,4-triazol-3-yl)methanone] | 1 to 100 | 1 to 100 |  |
| Nc1c(Br)c([C@@H]2C[C@H]3CC[C@@H](C2)N3C(=O)c2nnc[nH]2)nc2c(-c3ccc(C4(O)CCC4)nc3)cnn12 [Compound 7.42, ((1R,3s,5S)-3-(7-amino-6-bromo-3-(6-(1-hydroxycyclobutyl)pyridin-3-yl)pyrazolo[1,5-a]pyrimidin-5-yl)-8-azabicyclo[3.2.1]octan-8-yl)(4H-1,2,4-triazol-3-yl)methanone] | 100 to 1000 | 1000 to 10000 |  |
| Nc1c(C2CC2)c([C@@H]2C[C@H]3CC[C@@H](C2)N3C(=O)c2nnc[nH]2)nc2c(-c3ccc(C4(O)CCC4)nc3)cnn12 [Compound 7.43, ((1R,3s,5S)-3-(7-amino-6-cyclopropyl-3-(6-(1-hydroxycyclobutyl)pyridin-3-yl)pyrazolo[1,5-a]pyrimidin-5-yl)-8-azabicyclo[3.2.1]octan-8-yl)(4H-1,2,4-triazol-3-yl)methanone] | 100 to 1000 | 100 to 1000 |  |
| CC(=O)c1c([C@@H]2C[C@H]3CC[C@@H](C2)N3C(=O)c2nnc[nH]2)nc2c(-c3ccc(C4(O)COC4)nc3)cnn2c1N [Compound 7.45, 1-(5-((1R,3s,5S)-8-(4H-1,2,4-triazole-3-carbonyl)-8-azabicyclo[3.2.1]octan-3-yl)-7-amino-3-(6-(3-hydroxyoxetan-3-yl)pyridin-3-yl)pyrazolo[1,5-a]pyrimidin-6-yl)ethanone] | 100 to 1000 | 100 to 1000 |  |
| CS(=O)(=O)c1c([C@@H]2C[C@H]3CC[C@@H](C2)N3C(=O)c2nnc[nH]2)nc2c(-c3ccc(C4(O)CCCC4)nc3)cnn2c1N [Compound 7.46, ((1R,3s,5S)-3-(7-amino-3-(6-(1-hydroxycyclopentyl)pyridin-3-yl)-6-(methylsulfonyl)pyrazolo [1,5-a]pyrimidin-5-yl)-8-azabicyclo[3.2.1]octan-8-yl)(4H-1,2,4-triazol-3-yl)methanone] | 1 to 100 | 1 to 100 |  |
| CS(=O)(=O)c1c([C@@H]2C[C@H]3CC[C@@H](C2)N3C(=O)CO)nc2c(-c3ccc(C4(O)CCCC4)nc3)cnn2c1N [Compound 7.47, 1-((1R,3s,5S)-3-(7-amino-3-(6-(1-hydroxycyclopentyl)pyridin-3-yl)-6-(methylsulfonyl)pyrazolo [1,5-a]pyrimidin-5-yl)-8-azabicyclo[3.2.1]octan-8-yl)-2-hydroxyethanone] | 100 to 1000 | 100 to 1000 |  |
| CS(=O)(=O)c1c([C@@H]2C[C@H]3CC[C@@H](C2)N3C(=O)c2nnc[nH]2)nc2c(-c3ccc(C4(O)COC4)nc3)cnn2c1N [Compound 7.48, ((1R,3s,5S)-3-(7-amino-3-(6-(3-hydroxyoxetan-3-yl)pyridin-3-yl)-6-(methylsulfonyl)pyrazolo [1,5-a]pyrimidin-5-yl)-8-azabicyclo[3.2.1]octan-8-yl)(4H-1,2,4-triazol-3-yl)methanone] | 1000 to 10000 | 1000 to 10000 |  |
| CS(=O)(=O)c1c([C@@H]2C[C@H]3CC[C@@H](C2)N3C(=O)CO)nc2c(-c3ccc(C4(O)COC4)nc3)cnn2c1N [Compound 7.49, 1-((1R,3s,5S)-3-(7-amino-3-(6-(3-hydroxyoxetan-3-yl)pyridin-3-yl)-6-(methylsulfonyl)pyrazolo [1,5-a]pyrimidin-5-yl)-8-azabicyclo[3.2.1]octan-8-yl)-2-hydroxyethanone] | 1000 to 10000 | 1000 to 10000 |  |
| CC(=O)c1c([C@@H]2C[C@H]3CC[C@@H](C2)N3C(=O)c2nnc[nH]2)nc2c(-c3ccc(C4(O)CCCC4)nc3)cnn2c1N [Compound 7.50, 1-(5-((1R,3s,5S)-8-(4H-1,2,4-triazole-3-carbonyl)-8-azabicyclo[3.2.1]octan-3-yl)-7-amino-3-(6-(1-hydroxycyclopentyl)pyridin-3-yl)pyrazolo[1,5-a]pyrimidin-6-yl)ethanone] | 1 to 100 | 1 to 100 |  |
| CC(O)c1ccc(-c2cnn3c(N)c(S(C)(=O)=O)c([C@@H]4C[C@H]5CC[C@@H](C4)N5C(=O)c4nnc[nH]4)nc23)cc1 (stereo partly drawn) [Compound 7.51, ((1R,3s,5S)-3-(7-amino-3-(4-(1-hydroxyethyl)phenyl)-6-(methylsulfonyl)pyrazolo [1,5-a]pyrimidin-5-yl)-8-azabicyclo[3.2.1]octan-8-yl)(4H-1,2,4-triazol-3-yl)methanone] | 1 to 100 | 1 to 100 |  |
